# Measurements: article doi:10.1101/2025.10.16.682360v1, “Live-Cell Chemoproteomic Profiling Identifies the Uncharacterised Protein YbaA as a Direct Target of Ciprofloxacin in Escherichia coli” (biorxiv, 2025)
# What was measured:
# YbaA = target: T1, YbaA (Escherichia coli, UniProt P0AAQ6); experiment: surface plasmon resonance; format: binding
# T1 construct: C-terminal His10 tag; purified by IMAC and size exclusion chromatography; printed peptide IVECWASDVPDGKVTDFR
# T1 sequence (P0AAQ6 1-117): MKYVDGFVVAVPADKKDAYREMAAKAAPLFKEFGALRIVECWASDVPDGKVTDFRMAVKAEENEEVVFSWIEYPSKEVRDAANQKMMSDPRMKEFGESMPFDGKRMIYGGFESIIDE
# Description: surface plasmon resonance on YbaA | Direct binding of CFX to YjdN or YbaA was further assessed by surface plasmon resonance
# YjdN = target: T2, YjdN (Escherichia coli, UniProt P16681); experiment: surface plasmon resonance; format: binding
# T2 construct: C-terminal His10 tag; purified by IMAC and size exclusion chromatography
# T2 sequence (P16681 1-147): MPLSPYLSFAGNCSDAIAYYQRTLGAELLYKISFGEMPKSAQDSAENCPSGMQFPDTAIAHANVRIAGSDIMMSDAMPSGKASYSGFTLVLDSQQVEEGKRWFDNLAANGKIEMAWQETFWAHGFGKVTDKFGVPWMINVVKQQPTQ
# Description: surface plasmon resonance on YjdN | Direct binding of CFX to YjdN or YbaA was further assessed by surface plasmon resonance
compound,measurement,setting,value
"O=C(O)c1cn(C2CC2)c2cc(N3CCNCC3)c(F)cc2c1=O [compound 1, Ciprofloxacin]",Kd,YbaA,1 ± 0.34 µM
same,Kd,YjdN,1.4 ± 0.62 µM
